Laboratory results published in PubChem BioAssay (NCI).
Values joined by “and” are separate entries in the source; they are usually repeats but may differ in a detail not shown here. Equal entries are not always repeated.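 Assay format: 96-well plates, 48-hour exposure. Abbreviation: GI50, concentration required for 50% inhibition of growth. TGI: total growth inhibition.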

Each compound was assayed on MDA-MB-468 breast (assay: NCI anticancer screen, dose series, 48 h).

| Structure (SMILES) | GI50 | TGI |
| --- | --- | --- |
| COc1ccc(-c2nnc3n(C)c(=O)c4ccccc4n23)cc1O | 1210 nM | 14000 nM |
| c1ccc(Cn2cc3c(c2)-c2oncc2CC3)cc1 | 331 nM |  |
| Cc1ccc2c(n1)C(=O)C(Cl)=C(Nc1cccc(C(C)C)c1)C2=O | 1200 nM | 2610 nM |
| Clc1ccccc1-c1nc2ccccc2[nH]1 | 37000 nM | > 100000 nM |
| C=C(C=O)[C@@H]1CC[C@]2(C)[C@H](CC=C3[C@H]4[C@@H](C)[C@H](C)CC[C@]4(C(=O)OC)CC[C@]32C)[C@@]1(C)CCC#N | 1600 nM | 3240 nM |
| CCOC(=O)Nc1nc2c(F)c(F)c(F)cc2s1 | 53900 nM | > 100000 nM |
| C[C@@H]1CN(Cc2ccc(/C=C/c3n[nH]c4ccc5nc(-c6cn[nH]c6C(F)(F)F)c6c(c5c34)CCCC6)cc2)C[C@H](C)O1 | 5890 nM | 22200 nM |
| COc1ccc2c(c1)c(CC(=O)[Se]CCC#N)c(C)n2C(=O)c1ccc(Cl)cc1 | 2500 nM | 6930 nM |
| O=C1OCC2=C1C(c1cccc(F)c1)c1cc3c(cc1N2CCO)OCCO3 (configuration not stated) | 125 nM |  |
| Cc1cc(N(CCCNc2ccnc3cc(Cl)ccc23)Cc2cccs2)nc(Cl)n1 | 853 nM | 5740 nM |
| COc1cc(Nc2ncc3c(n2)-c2ccc(Cl)cc2C(c2c(F)cccc2OC)=NC3)ccc1C(=O)O | 45.6 nM | 19900 nM |
| Cc1cc2nc3ccc(N=Nc4ccc(N(C)C)cc4)cc3n(-c3ccccc3)c-2cc1=N | 19.5 nM | 199 nM |
| C=C(C)[C@@H]1CC[C@]2(COS(C)(=O)=O)CC[C@]3(C)[C@H](CC[C@@H]4[C@@]5(C)CCCNC(C)(C)[C@@H]5CC[C@]43C)[C@@H]12 | 1750 nM | 3230 nM |
| COC(=O)Nc1nc2c(OC)c(OC)c(OC)cc2[nH]1 | 14300 nM | > 77300 nM |
| CN1CCN(c2nc(-c3csc(-c4ccccc4)n3)cc3ccccc23)CC1 | 1740 nM | 4010 nM |
| O=C(Cc1ccccc1)Nc1nnc(CCSCCc2nnc(NC(=O)Cc3ccccc3)s2)s1 | 36000 nM | > 100000 nM |
| Cc1cc(-c2ccccc2)c(C)n1Cc1ccc(Cl)cc1 | 1420 nM | 7540 nM |
| COc1ccc(/C=C/c2nc(N3CCOCC3)c3cc(F)c(F)cc3n2)cc1OC | 748 nM | 8030 nM |
| COc1cc(C(=O)/C=C/c2c(-c3ccc(F)cc3)nc3sccn23)cc(OC)c1OC | 2810 nM | 13600 nM |
| Cc1cc(C)cc(Nc2nccc(-c3c(-c4ccc(F)cc4)ncn3C3CCNCC3)n2)c1 | 1140 nM | 2760 nM |
| CC(C)(C)c1ccc(C(=O)N/N=C/c2ccc(O)cc2O)cc1 | 396 nM | 2240 nM |
| O=C1C(N2CCN(c3ccccc3)CC2)=C(Cl)C(=O)c2ncccc21 | 1590 nM | 3160 nM |
| O=C1NC(=O)c2c1c1c3ccccc3ccc1c1[nH]c3ccc(Br)cc3c21 | 1560 nM | 3990 nM |
| COc1ccc(N2CCN(CC(=O)N3CCN(c4nnc(-c5ccccc5)c(-c5ccccc5)n4)CC3)CC2)cc1 | 2440 nM | 12800 nM |

| Structure (SMILES) | GI50 | TGI |
| --- | --- | --- |
| COC(=O)[C@]12CC[C@@H](C)[C@H](C)[C@@H]1C1=CC[C@@H]3[C@@]4(C)C(c5ncon5)=C[C@@](C)(CO)C4=CC[C@@]3(C)[C@]1(C)CC2 | 1950 nM | 3800 nM |
| c1ccc(-c2n(Cc3ccc4ccccc4n3)c3ccccc3[n+]2Cc2ccc3ccccc3n2)cc1 | 105 nM | 512 nM |
| COc1ccc(C(=O)Nc2ncc(Cc3ccc(F)cc3)s2)cc1 | 362 nM | > 100000 nM |
| O=C(c1ccc(O)cc1)c1ccc(C(=O)c2ccc(O)cc2)cc1 | 6500 nM | > 100000 nM |
| COCCNc1ccc2ncc(C#Cc3cncc(C(=O)Nc4ccc(CN5CCN(C)CC5)c(C(F)(F)F)c4)c3)n2n1 | 101 nM | 260 nM |
| CCN(CC)c1ccc(/C=C/C(=O)c2cccc(NS(C)(=O)=O)c2)cc1 | 3840 nM | > 100000 nM |
| O=C1Nc2ccccc2C12CC(c1ccccc1)=NN2 (configuration not stated) | 6960 nM | > 100000 nM |
| O=C1CC(c2ccccc2)Cc2nc3ccc(Cl)cc3cc21 (configuration not stated) | 2860 nM | > 26100 nM |
| Cc1cc[c-]cc1.Fc1c[c-]c(-c2ccccn2)c(F)c1.N#CCC[PH+](CCC#N)c1ccccc1.[Pt+2] | 2880 nM | 9110 nM |
| NC1=CC(=O)C(=O)c2cccnc21 | 10600 nM | 22500 nM |
| O=C1C2C(C(=O)[N]1[Hg][c]1ccccc1)C1(Cl)C(Cl)=C(Cl)C2(Cl)C1(Cl)Cl (configuration not stated) | 233 nM | 728 nM |
| CC(C)[C@@H](C(=O)O[C@@H]1/C=C/C(=O)O[C@@H](C)CCC/C=C/[C@@H]2C[C@H](O)C[C@H]21)[N+](C)(C)C | > 100000 nM | > 100000 nM |
| COc1cc(C2c3cc4c(cc3C3OC(=O)C2C3CO)OCO4)cc(OC)c1OC (configuration not stated) | < 10 nM | > 100000 nM |
| O=C(O)c1cn(C2CC2)c2cc(N3CCN(S(=O)(=O)c4ccc(Cl)c(Cl)c4)CC3)c(F)cc2c1=O | 2240 nM | 6890 nM |
| COc1cc2c3c(cc4c5c(ccc4c3c1OC)OCO5)N(CCN(C)C)C2=O | 73.1 nM | 412 nM |
| CC(=O)OC1CCC2(C)C(CCC3C2CCC2(C)C(C4=CC(=O)OC4)CCC32)C1 (configuration not stated) | 5260 nM | 44900 nM |
| CC1=C[C@H]2c3c(c(O)c(O)c4oc5cc(O)cc(O)c5c(=O)c34)[C@H](c3cc(O)c(O)c4oc5cc(O)cc(O)c5c(=O)c34)[C@H]2C(C)(C)C1 | 2070 nM | 5670 nM and 6250 nM |
| Cn1cc(-c2csc(-c3cn(CCN4CCOCC4)c4ccc(F)cc34)n2)c2cccnc21 | 2200 nM | 8590 nM |
| NC(=O)Nc1ccc2ncnc(Nc3ccc(Cl)cc3)c2c1 | 1430 nM | 8280 nM |
| Cc1ccc(C(=O)Nc2ccc(CN3CCN(C)CC3)c(C(F)(F)F)c2)cc1C#Cc1cncc2ncccc12 | 1460 nM | 18500 nM |
| Oc1c(I)cc(I)cc1CNCCCN(Cc1ccccn1)Cc1ccccn1 | 1010 nM | 2340 nM |
| O=C(Cc1ccc(/C=C/C(=O)c2ncc[nH]2)cc1)Nc1ccc(Br)cc1 | 1420 nM | 4090 nM |
| Nc1c(C(=O)Nc2cccc3ccccc23)sc2nc3c(cc12)CCCC3 | 327 nM | > 100000 nM |
